The source of these data is paper doi:10.1101/2024.08.19.608619, “Discovery of potent SARS-CoV-2 nsp3 macrodomain inhibitors uncovers lack of translation to cellular antiviral response” (bioRxiv, 2024).

Structures are written as SMILES. Several values for one entry are separate records, joined by “and”; a condition that tells them apart may be missing. Equal entries are not always repeated. Where two headings read alike, the source gives them in different places. Where only a bound is given, the exact number is not on record here.

One data set concerns the target T1, H1 (h) (Homo sapiens, UniProt P35367).
T1 construct: purchased Eurofins Cerep (SafetyScreen44), recognised from the panel format
Put plainly: In vitro CEREP profiling, H1 (h) (antagonist radioligand). The settings on record: test compound concentration 10 uM; for inhibition at 10 µM: read-out: perc_inhibition (% inhibition of the binding of a ligand specific for each target). In kind it is binding. The source says: (§1) Supplement media-1.zip/Safety_Panel_Profile.csv, table | column: perc_inhibition

In another data set the target is T2, KOR receptor (Homo sapiens, UniProt P41145).
T2 construct: purchased Eurofins Cerep (SafetyScreen44), recognised from the panel format
Put plainly: Eurofins CEREP panel, KOR. The settings on record: for perc_inhibition (% inhibition of the binding of a ligand specific for each target) / inhibition at 10 µM: kappa (h) (KOP) (agonist radioligand), test compound concentration 10 uM; for inhibition at 10 µM: read-out: perc_inhibition (% inhibition of the binding of a ligand specific for each target). The data set is classed as binding.

The target of the next data set is T3, Lck kinase (h) (Homo sapiens, UniProt P06239).
T3 construct: purchased Eurofins Cerep (SafetyScreen44), recognised from the panel format
Put plainly: In vitro CEREP profiling, Lck kinase (h). The data set is classed as biochemical. Conditions: test compound concentration 10 uM, Enzyme and Cell-based assays; for inhibition at 10 µM: read-out: perc_inhibition: % inhibition of control enzyme activity, Lck kinase (h).
From the text: as §1

The target in another data set is T4, ASK1(h) (Homo sapiens, UniProt Q99683).
T4 construct: gene MAP3K5
T4 sequence (Q99683 1-1374): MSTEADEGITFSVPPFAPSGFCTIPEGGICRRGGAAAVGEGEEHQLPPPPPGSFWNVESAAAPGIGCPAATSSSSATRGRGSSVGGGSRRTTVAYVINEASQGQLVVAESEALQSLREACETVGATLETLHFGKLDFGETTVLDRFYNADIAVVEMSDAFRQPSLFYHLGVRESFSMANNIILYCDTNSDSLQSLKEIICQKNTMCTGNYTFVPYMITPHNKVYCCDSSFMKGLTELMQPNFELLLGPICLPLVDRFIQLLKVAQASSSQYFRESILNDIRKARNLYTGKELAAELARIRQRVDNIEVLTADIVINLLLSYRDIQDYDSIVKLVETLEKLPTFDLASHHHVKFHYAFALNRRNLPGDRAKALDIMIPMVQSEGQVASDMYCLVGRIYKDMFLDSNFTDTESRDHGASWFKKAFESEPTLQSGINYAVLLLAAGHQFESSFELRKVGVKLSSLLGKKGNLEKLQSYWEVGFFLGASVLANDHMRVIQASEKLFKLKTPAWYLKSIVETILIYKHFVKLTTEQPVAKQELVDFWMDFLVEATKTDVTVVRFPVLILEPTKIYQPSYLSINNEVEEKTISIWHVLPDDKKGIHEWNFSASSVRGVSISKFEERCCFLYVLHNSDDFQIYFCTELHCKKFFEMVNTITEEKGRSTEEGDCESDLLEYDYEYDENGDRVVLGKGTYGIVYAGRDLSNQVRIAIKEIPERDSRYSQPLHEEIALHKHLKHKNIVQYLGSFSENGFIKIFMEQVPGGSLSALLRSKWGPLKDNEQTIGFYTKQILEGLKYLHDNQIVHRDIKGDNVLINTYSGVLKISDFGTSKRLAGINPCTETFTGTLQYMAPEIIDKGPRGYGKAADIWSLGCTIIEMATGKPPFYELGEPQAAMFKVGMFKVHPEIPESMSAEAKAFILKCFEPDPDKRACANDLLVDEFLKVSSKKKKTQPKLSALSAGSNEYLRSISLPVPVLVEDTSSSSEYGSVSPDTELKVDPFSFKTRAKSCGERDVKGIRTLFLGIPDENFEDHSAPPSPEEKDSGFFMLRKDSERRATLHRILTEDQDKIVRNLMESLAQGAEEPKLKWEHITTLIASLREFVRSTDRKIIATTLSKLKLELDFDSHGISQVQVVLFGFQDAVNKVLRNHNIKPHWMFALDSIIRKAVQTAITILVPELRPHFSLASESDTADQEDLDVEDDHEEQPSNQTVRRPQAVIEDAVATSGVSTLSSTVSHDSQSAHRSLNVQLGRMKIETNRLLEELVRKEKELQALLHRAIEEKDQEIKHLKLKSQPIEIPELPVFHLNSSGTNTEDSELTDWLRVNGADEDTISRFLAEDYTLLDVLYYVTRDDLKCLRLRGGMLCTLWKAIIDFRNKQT
Nature of the data set: biochemical. Also noted: In vitro kinase panel profiling, per cent remaining kinase activity at 10 uM. The settings on record: atp_concentration=200, read-out: % of control remaining. The text has this:
(§2) We derisk potential for off-target activity by profiling the compound in a CEREP panel, a standard secondary pharmacology assessment, as well as a kinase panel to derisk a potential hinge-binding motif in our leads, and a PARP panel to derisk activity against human […]. Reassuringly, the compounds are selective, with the only off-targets being moderate human CHRM2 and KOR receptors activity associated with ASAP-0011198.

A further data set deals with T5, PKCθ(h) (Homo sapiens, UniProt Q04759).
T5 construct: gene PRKCQ
Nature of the data set: biochemical. Further details: In vitro kinase panel profiling, per cent remaining kinase activity at 10 uM. Conditions: atp_concentration=15, read-out: % of control remaining.
From the text: as §2

In a further data set the target is CDK6/cyclinD3(h) (Homo sapiens, UniProt Q00534). Put plainly: biochemical. Conditions: atp_concentration=200, read-out: % of control remaining. Further details: In vitro kinase panel profiling, per cent remaining kinase activity at 10 uM.
From the text: as §2

A further data set has as its target T6, DRAK1(h) (Homo sapiens, UniProt Q9UEE5).
T6 construct: gene STK17A
T6 sequence (Q9UEE5 1-414): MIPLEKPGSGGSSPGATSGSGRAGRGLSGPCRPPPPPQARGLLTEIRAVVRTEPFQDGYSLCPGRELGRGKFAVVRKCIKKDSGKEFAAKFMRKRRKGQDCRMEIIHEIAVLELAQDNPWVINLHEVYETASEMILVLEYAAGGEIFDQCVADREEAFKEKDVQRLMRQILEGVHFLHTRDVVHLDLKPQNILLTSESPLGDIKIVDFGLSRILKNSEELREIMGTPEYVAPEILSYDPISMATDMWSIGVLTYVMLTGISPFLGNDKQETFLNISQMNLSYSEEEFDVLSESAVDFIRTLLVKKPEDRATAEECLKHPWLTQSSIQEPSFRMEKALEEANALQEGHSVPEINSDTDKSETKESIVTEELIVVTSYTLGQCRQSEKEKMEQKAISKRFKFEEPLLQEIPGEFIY
Nature of the data set: biochemical. Also noted: In vitro kinase panel profiling, per cent remaining kinase activity at 10 uM. Conditions: atp_concentration=10, read-out: % of control remaining.
From the text: as §2

A short description of data set [1]: In vitro rat hepatocyte stability. In kind it is in vitro ADME. The text has this: Supplement media-1.zip/Hepatocyte_Stability.csv, table | column: clint; t_half
For another data set, the target named is T7, beta1 (h) (Homo sapiens, UniProt P08588).
T7 construct: purchased Eurofins Cerep (SafetyScreen44), recognised from the panel format
Nature of the data set: In vitro CEREP profiling, beta1 (h) (agonist radioligand). The data set is classed as binding. Conditions: test compound 10 uM; for inhibition at 10 µM: read-out: perc_inhibition (% inhibition of the binding of a ligand specific for each target).
From the text: as §1

T5 sequence (Q04759 whole entry): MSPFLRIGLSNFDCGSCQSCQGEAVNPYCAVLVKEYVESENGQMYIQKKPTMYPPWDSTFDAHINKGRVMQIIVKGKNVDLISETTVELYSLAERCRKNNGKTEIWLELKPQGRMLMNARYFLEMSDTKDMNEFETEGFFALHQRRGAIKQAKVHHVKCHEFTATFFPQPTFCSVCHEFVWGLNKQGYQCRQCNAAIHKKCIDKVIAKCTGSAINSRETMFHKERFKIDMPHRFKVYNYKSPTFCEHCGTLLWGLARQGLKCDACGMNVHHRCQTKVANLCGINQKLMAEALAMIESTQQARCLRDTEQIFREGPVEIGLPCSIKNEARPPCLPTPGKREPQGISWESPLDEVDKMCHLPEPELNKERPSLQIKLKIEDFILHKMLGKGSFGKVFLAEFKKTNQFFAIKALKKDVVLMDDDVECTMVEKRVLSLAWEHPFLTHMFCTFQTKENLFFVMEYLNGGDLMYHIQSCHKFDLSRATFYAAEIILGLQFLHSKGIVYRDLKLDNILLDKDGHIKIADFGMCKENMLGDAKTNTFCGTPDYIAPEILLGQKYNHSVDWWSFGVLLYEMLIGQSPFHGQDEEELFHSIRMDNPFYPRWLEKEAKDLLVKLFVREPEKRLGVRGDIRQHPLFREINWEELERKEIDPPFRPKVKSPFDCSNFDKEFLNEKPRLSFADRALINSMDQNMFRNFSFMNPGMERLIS
T2 sequence (P41145 whole entry): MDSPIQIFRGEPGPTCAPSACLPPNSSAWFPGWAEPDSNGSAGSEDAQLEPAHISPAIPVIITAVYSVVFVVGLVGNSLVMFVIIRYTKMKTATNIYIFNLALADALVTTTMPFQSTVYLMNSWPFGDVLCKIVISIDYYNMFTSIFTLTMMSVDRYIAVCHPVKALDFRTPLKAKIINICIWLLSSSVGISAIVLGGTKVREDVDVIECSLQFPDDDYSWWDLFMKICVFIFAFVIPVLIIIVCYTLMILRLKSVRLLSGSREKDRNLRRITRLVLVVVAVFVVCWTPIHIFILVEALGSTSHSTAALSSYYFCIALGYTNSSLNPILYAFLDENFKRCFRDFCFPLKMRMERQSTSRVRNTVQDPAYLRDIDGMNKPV
Chain of CDK6/cyclinD3(h) (Q00534 whole entry): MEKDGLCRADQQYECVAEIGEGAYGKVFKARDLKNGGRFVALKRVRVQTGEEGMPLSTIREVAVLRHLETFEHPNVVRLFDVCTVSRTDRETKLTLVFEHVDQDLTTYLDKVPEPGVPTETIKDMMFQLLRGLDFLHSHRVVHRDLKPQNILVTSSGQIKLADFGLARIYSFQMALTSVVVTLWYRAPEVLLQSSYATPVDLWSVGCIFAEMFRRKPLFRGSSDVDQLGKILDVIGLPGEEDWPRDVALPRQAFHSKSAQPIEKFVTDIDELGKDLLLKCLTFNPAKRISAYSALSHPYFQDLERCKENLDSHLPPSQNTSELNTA
Chain of CDK6/cyclinD3(h) (P30281 whole entry partner): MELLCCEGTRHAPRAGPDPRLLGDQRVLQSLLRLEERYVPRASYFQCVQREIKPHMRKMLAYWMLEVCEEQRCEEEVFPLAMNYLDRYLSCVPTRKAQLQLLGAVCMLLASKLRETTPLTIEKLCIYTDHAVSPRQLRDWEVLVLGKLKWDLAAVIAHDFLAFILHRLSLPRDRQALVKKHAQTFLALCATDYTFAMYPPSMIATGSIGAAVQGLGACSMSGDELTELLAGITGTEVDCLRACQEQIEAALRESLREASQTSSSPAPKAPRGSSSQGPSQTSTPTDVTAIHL
T3 sequence (P06239 whole entry): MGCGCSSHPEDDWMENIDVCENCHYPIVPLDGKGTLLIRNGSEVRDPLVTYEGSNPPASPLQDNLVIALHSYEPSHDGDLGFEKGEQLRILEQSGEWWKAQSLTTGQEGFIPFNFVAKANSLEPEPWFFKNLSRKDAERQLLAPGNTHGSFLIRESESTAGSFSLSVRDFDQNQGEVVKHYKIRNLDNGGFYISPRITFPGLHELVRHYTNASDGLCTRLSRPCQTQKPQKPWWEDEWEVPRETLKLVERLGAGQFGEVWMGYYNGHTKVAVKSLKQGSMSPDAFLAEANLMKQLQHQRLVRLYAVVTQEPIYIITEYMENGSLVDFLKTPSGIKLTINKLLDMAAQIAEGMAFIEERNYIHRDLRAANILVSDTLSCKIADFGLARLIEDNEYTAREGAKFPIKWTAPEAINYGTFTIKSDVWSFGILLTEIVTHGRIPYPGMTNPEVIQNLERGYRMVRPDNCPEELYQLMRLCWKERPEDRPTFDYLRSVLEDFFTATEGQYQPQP
T1 sequence (P35367 whole entry): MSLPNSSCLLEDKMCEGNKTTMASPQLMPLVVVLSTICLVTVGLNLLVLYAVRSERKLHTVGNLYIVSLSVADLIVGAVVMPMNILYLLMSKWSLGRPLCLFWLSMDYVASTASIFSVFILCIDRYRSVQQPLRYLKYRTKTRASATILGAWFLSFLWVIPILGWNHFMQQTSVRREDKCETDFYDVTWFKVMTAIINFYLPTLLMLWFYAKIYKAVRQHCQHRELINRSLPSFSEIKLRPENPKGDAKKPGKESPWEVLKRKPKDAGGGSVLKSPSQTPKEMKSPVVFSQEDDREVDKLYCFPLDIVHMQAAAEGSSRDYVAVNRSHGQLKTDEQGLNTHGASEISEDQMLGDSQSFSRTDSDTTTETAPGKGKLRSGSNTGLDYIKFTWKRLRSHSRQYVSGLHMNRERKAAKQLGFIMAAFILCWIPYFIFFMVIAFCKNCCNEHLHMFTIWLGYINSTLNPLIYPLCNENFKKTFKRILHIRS
T7 sequence (P08588 whole entry): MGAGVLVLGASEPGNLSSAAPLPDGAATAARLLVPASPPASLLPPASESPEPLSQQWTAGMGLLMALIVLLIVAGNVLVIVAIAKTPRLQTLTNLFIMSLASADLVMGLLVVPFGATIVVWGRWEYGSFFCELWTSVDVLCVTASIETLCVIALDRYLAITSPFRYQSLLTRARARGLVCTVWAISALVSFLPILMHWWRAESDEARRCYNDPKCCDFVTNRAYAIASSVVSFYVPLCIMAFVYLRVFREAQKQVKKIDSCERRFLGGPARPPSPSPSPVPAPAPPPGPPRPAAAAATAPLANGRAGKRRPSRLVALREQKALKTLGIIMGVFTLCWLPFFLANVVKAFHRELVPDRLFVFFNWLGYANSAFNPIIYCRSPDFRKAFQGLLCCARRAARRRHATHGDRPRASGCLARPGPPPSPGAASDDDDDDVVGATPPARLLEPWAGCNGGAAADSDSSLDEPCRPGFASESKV

Turning to `CC(C)[C@H](Nc1ncnc2[nH]ccc12)c1ccc2c(c1)S(=O)(=O)CCC2` [ASAP-0008674], the “perc_inhibition (% inhibition of the binding of a ligand specific for each target)” value at H1 (h) was -3%; at KOR receptor it was 84%; at beta1 (h), 11%. For the same compound, the “perc_inhibition: % inhibition of control enzyme activity, Lck kinase (h)” value at Lck kinase (h) worked out at 10%. Also, the remaining activity at 10 µM at ASK1(h) (batch_name=ASAP-0008674-002) is 105%; at PKCθ(h) (batch_name=ASAP-0008674-002), 88%; at CDK6/cyclinD3(h) (batch_name=ASAP-0008674-002), 105%; at DRAK1(h) (batch_name=ASAP-0008674-002) it was 117%. The compound further yielded a clint in [1] of 75.8 uL/min/1E6 cells. Also, in data set [1], the t_half is recorded as 9.15 min.
As to `CC(C)C(Nc1ncnc2[nH]c(C(=O)NC3CCN(C)C3)cc12)c1ccc2c(c1)S(=O)(=O)CCC2` (stereo not shown) [ASAP-0011198], the inhibition at 10 µM on H1 (h) was 2%; on KOR receptor, 78%; on Lck kinase (h) it was 15%; on beta1 (h) it was 4%. For the same compound, at KOR receptor (CEREP panel), the “off-target activity at KOR receptor, in words” value is “moderate”. In addition, the remaining activity at 10 µM is 105% at ASK1(h) (batch_name=ASAP-0011198-002), 102% at PKCθ(h) (batch_name=ASAP-0011198-002), 99% on CDK6/cyclinD3(h) (batch_name=ASAP-0011198-002) and 105% on DRAK1(h) (batch_name=ASAP-0011198-002). In addition, in data set [1], the clint is reported as 9.3 uL/min/1E6 cells. Further, in [1], the t_half was 145.0 min and 74.8 min. The compound also registered a hepatocyte CLint in data set [1] (rat, hepatocytes) of 4.78 µL/min/1e6 cells.
For `Cc1nn(C)cc1-c1cc2c(NC(c3ccc4c(c3)S(=O)(=O)CCC4)C(C)C)ncnc2[nH]1` (stereo not shown) [ASAP-0011446], the inhibition at 10 µM on H1 (h) stood at 0%; on KOR receptor, 45%; on Lck kinase (h), 33%; at beta1 (h), 1%. Besides, the remaining activity at 10 µM on ASK1(h) (batch_name=ASAP-0011446-002) turned out to be 103%; on PKCθ(h) (batch_name=ASAP-0011446-002), 106%; on CDK6/cyclinD3(h) (batch_name=ASAP-0011446-002), 106%; on DRAK1(h) (batch_name=ASAP-0011446-002), 111%.
As to `C[C@H](C(=O)O)[C@@H](NC(=O)c1ncnc2[nH]ccc12)c1ccc(Br)cc1` [ASAP-0014722], the “perc_inhibition (% inhibition of the binding of a ligand specific for each target)” value is -8% on H1 (h), 2% at KOR receptor and -5% at beta1 (h). Besides, the “perc_inhibition: % inhibition of control enzyme activity, Lck kinase (h)” value at Lck kinase (h) turned out to be 4%. The remaining activity at 10 µM at ASK1(h) (batch_name=ASAP-0014722-002) was determined as 102%; on PKCθ(h) (batch_name=ASAP-0014722-002) it was 100%; at CDK6/cyclinD3(h) (batch_name=ASAP-0014722-002), 97%; at DRAK1(h) (batch_name=ASAP-0014722-002), 98%. Further, the clint in data set [1] is under 3.0 uL/min/1E6 cells. In data set [1], this compound gave a t_half of over 231.0 min.
